Test results from the supplement of paper PMC10307832.

Key:
Experiment in all cases: relative viability (nuclei count vs DMSO), 5 days (fraction); higher = more cells survive
BAM7 + Palbociclib = compound: CCOC1=CC=CC=C1N=NC2=C(NN(C2=O)C3=NC(=CS3)C4=CC=CC=C4)C [BAM7] + CC(=O)c1c(C)c2cnc(Nc3ccc(N4CCNCC4)cn3)nc2n(C2CCCC2)c1=O [Palbociclib] (partner 0.5 µM)
Summary of the method: (§1)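 Lung cancer cell lines, seeded in 1536-well plates, were treated the following day by pin tool with a single drug or with five library-drug doses (not always all listed) in √10 steps on top of a fixed anchor-drug dose. Cells were fixed and nuclei stained in one step after 5 days, and nuclei were counted. Relative viability is the nuclei count for treated wells divided by that for vehicle wells, reported as medians of duplicate plates.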

[1] = compound: CCn1c(-c2nonc2N)nc2c(C#CC(C)(C)O)ncc(OC[C@H]3CCCNC3)c21 + CC(=O)c1c(C)c2cnc(Nc3ccc(N4CCNCC4)cn3)nc2n(C2CCCC2)c1=O [Palbociclib] (partner 0.5 µM)
Summary of the method: as §1

BAM7 + AZD7762 = compound: CCOC1=CC=CC=C1N=NC2=C(NN(C2=O)C3=NC(=CS3)C4=CC=CC=C4)C [BAM7] + NC(=O)Nc1cc(-c2cccc(F)c2)sc1C(=O)N[C@H]1CCCNC1 [AZD7762] (partner 0.2 µM)
Summary of the method: as §1

BAM7 + Luminespib = compound: CCOC1=CC=CC=C1N=NC2=C(NN(C2=O)C3=NC(=CS3)C4=CC=CC=C4)C [BAM7] + CCNC(=O)c1noc(-c2cc(C(C)C)c(O)cc2O)c1-c1ccc(CN2CCOCC2)cc1 [Luminespib] (partner 0.01 µM)
Summary of the method: as §1

Row | Cell Line | relative viability (BAM7 + Palbociclib; first compound 0.5 µM) | relative viability (BAM7 + Palbociclib; first compound 5 µM) | relative viability (BAM7 + Palbociclib; first compound 15.81 µM) | relative viability (BAM7 + Palbociclib; first compound 50 µM) | relative viability ([1]; first compound 0.01 µM) | relative viability ([1]; first compound 0.03162 µM) | relative viability ([1]; first compound 0.1 µM) | relative viability ([1]; first compound 0.3162 µM) | relative viability ([1]; first compound 1 µM) | relative viability (BAM7 + AZD7762; first compound 0.5 µM) | relative viability (BAM7 + AZD7762; first compound 5 µM) | relative viability (BAM7 + AZD7762; first compound 15.81 µM) | relative viability (BAM7 + AZD7762; first compound 50 µM) | relative viability (BAM7 + Luminespib; first compound 0.5 µM) | relative viability (BAM7 + Luminespib; first compound 5 µM) | relative viability (BAM7 + Luminespib; first compound 15.81 µM) | relative viability (BAM7 + Luminespib; first compound 50 µM)
1 | NCI-H1355 | 0.415 | 0.385 | 0.377 | 0.416 | 0.408 | 0.367 | 0.406 | 0.382 | 0.382 | 0.654 | 0.66 | 0.68 | 0.697 | 0.697 | 0.754 | 0.637 | 0.707
2 | HCC-78 | 0.487 | 0.383 | 0.49 | 0.45 | 0.519 | 0.487 | 0.454 | 0.465 | 0.43 | 0.635 | 1.4 | 0.702 | 0.627 |  |  |  | 
3 | NCI-H1563 |  |  |  |  |  |  |  |  |  |  |  |  |  | 0.508 | 0.518 | 0.562 | 0.564
4 | HCC-15 | 0.621 | 0.694 | 0.614 | 0.686 | 0.76 | 0.71 | 0.716 | 0.614 | 0.683 | 1.29 | 1.24 | 1.06 | 1.21 | 0.338 | 0.439 | 0.4 | 0.187
5 | EKVX | 0.444 | 0.39 | 0.337 | 0.429 | 0.411 | 0.408 | 0.378 | 0.374 | 0.419 | 0.871 | 0.617 | 0.668 | 0.704 | 0.909 | 0.925 | 0.618 | 0.803
6 | NCI-H2087 | 0.272 | 0.255 | 0.229 | 0.292 | 0.214 |  | 0.225 | 0.248 | 0.293 | 1.34 | 1.47 | 1.25 | 1.07 | 0.183 | 0.216 | 0.18 | 0.172
7 | LK-2 | 0.662 | 0.648 | 0.741 | 0.598 | 0.641 | 0.714 | 0.556 | 0.625 | 0.887 | 0.407 | 0.472 | 0.515 | 0.404 | 0.221 | 0.172 | 0.228 | 0.191
8 | NCI-H1437 | 0.318 | 0.326 | 0.306 | 0.326 | 0.295 | 0.297 | 0.338 | 0.281 | 0.359 | 1.1 | 1.11 | 0.945 | 1.02 | 1.16 | 1.13 | 1.12 | 1.09
9 | COR-L23 | 0.284 | 0.315 | 0.294 | 0.275 | 0.22 | 0.288 | 0.226 | 0.231 | 0.226 |  |  |  |  | 0.635 | 0.661 | 0.601 | 0.647
10 | ABC-1 | 0.548 | 0.667 | 0.774 | 0.584 | 0.578 |  | 0.678 | 0.735 | 0.555 | 0.755 | 1.29 | 0.863 | 0.783 | 0.291 | 0.496 | 0.469 | 0.773
11 | SW 900 |  | 0.543 |  | 0.596 | 0.558 | 0.557 | 0.483 | 0.649 | 0.444 |  | 0.592 |  | 0.691 | 0.19 | 0.208 | 0.158 | 0.185
